According to patent US20240024488A1, “COMPOUNDS AND USES THEREOF” (Foghorn Therapeutics Inc., priority 2020, published 2024):

How the values were obtained:
[1] = molecular target: T1, HiBit-BRG1 fusion protein (Homo sapiens, UniProt P51532); experiment: HiBiT-BRG1 cell-based degradation assay (Nano-Glo HiBiT Lytic Detection, 24 h); conditions: HeLa cell line expressing HiBit-BRG1 and LgBit; for Dmax: read-out: BRG1 HiBit Degradation Maximum (%); for DC50: read-out: BRMG1 HiBit Degradation IC50
T1 construct: expressed in transfected cells
Method in brief: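 Luminescence from Nano-Glo HiBiT lytic detection, read after 24 h compound exposure, scored degradation in a stable HeLa HiBiT-BRG1/LgBit line seeded at 5000 cells/well. DMSO wells defined 0% and 2 μM known BRM/BRG1 degrader wells defined full degradation.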

HiBit-BRM fusion protein = molecular target: T2, HiBit-BRM fusion protein (Homo sapiens, UniProt P51531); experiment: HiBiT-BRM cell-based degradation assay (Nano-Glo HiBiT Lytic Detection, 24 h); conditions: HeLa cell line expressing HiBiT-BRM; for DC50: read-out: BRM HiBit Degradation IC50
T2 construct: expressed in transfected cells
Method in brief: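 Luminescence from reconstituted NanoBiT luciferase in lysed HeLa HiBiT-BRM cells served as the measure of remaining BRM after 24 h treatment. Compounds were tested from 30 μM final downward in 3-fold steps. DMSO and 2 μM of a standard BRM/BRG1 degrader defined the scale limits.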

T1 sequence (P51532 whole entry, the tested form may be a part): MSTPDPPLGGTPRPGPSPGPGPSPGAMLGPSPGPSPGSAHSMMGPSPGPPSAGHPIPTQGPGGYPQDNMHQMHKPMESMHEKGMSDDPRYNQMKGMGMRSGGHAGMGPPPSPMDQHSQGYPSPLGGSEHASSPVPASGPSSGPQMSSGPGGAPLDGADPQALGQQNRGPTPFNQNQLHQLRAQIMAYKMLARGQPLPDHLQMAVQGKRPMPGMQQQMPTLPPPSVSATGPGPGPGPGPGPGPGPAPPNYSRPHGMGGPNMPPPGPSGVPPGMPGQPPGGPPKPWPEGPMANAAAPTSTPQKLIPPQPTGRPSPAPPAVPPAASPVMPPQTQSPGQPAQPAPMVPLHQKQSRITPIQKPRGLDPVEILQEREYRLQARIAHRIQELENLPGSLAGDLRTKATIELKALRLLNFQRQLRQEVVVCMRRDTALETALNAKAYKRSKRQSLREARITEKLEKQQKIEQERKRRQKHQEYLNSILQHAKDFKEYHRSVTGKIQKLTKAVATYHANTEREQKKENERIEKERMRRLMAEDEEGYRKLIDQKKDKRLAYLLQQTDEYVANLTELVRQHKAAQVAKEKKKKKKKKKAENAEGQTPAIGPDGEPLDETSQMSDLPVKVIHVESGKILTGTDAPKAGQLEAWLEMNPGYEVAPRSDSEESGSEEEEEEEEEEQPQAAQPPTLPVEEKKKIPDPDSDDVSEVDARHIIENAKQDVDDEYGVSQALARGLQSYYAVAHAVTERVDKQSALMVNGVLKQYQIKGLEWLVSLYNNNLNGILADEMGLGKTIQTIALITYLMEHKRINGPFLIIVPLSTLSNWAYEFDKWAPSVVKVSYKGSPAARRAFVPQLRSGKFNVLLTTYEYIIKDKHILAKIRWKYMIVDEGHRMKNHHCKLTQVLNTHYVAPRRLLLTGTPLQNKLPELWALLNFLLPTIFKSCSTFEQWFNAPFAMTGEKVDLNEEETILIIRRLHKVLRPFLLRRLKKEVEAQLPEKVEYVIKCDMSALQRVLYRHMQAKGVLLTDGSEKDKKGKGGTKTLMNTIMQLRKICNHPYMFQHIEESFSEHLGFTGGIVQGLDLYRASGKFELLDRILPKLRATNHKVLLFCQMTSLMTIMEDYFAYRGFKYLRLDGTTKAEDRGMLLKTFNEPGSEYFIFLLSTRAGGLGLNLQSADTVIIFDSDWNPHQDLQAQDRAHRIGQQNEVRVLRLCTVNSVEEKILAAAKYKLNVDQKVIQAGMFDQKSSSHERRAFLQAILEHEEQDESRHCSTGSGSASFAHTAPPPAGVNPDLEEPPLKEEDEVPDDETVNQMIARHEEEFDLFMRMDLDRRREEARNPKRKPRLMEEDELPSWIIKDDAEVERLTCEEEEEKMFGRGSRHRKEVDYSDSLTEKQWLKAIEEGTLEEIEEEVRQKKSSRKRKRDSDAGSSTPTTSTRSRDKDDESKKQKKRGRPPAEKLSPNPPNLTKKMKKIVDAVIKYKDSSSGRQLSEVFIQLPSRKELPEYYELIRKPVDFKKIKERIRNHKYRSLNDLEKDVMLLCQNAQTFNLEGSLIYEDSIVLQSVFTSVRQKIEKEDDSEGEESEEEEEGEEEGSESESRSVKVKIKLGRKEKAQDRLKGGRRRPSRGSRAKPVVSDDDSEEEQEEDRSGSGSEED
T2 sequence (P51531 whole entry, the tested form may be a part): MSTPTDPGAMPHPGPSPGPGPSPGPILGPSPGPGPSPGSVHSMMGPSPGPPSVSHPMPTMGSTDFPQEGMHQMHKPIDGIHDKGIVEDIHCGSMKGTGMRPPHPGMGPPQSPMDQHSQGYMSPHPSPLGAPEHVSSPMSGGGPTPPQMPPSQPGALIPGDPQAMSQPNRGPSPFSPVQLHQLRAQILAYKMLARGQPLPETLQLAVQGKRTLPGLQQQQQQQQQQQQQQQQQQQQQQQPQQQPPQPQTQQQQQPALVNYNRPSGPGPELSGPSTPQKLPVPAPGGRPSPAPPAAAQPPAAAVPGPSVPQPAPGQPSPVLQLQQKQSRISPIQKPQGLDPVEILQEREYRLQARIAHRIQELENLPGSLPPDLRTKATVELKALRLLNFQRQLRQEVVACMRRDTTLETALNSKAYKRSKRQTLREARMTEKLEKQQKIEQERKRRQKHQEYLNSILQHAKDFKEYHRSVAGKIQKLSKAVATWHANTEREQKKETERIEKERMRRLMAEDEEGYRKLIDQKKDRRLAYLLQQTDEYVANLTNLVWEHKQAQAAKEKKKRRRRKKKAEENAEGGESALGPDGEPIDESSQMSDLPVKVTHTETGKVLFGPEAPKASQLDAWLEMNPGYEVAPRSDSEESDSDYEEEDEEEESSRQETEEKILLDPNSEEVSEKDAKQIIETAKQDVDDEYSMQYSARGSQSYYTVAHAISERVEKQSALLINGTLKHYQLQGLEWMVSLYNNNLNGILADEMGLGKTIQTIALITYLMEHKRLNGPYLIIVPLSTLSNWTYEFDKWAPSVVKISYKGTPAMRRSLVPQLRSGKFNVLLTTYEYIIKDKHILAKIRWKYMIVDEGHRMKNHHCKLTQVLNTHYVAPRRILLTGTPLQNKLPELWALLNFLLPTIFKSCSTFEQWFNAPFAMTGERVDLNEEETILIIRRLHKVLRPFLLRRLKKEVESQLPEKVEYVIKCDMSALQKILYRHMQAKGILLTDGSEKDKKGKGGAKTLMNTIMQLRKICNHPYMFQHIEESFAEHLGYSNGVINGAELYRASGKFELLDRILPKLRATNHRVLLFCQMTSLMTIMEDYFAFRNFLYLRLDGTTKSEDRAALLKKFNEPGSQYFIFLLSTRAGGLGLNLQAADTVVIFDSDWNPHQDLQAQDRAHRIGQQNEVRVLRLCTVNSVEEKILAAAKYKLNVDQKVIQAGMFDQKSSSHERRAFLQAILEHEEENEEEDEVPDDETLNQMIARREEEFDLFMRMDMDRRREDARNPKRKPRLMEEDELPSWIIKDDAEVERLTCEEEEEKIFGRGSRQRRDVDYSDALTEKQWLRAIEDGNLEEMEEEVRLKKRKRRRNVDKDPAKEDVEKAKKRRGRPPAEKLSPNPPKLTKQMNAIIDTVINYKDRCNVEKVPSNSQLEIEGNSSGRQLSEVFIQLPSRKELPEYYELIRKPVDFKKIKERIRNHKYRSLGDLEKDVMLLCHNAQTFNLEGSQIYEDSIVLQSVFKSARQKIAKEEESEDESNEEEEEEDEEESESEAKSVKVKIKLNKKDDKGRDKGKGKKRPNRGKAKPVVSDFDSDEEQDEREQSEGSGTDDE

| Structure (SMILES) | Dmax [1] [%] | BRM HiBit Degradation Maximum (%) (HiBit-BRM fusion protein) | DC50 (HiBit-BRM fusion protein) [nM] | DC50 [1] [nM] |
| --- | --- | --- | --- | --- |
| Cc1ncsc1-c1ccc([C@H](C)NC(=O)[C@@H]2C[C@@H](O)CN2C(=O)[C@@H](c2cc(OCCNC(=O)c3cc4cc(-c5ccccc5O)nnc4[nH]3)no2)C(C)C)cc1 (racemic) [Compound 239, N-(2-((5-((R)-1-((2S,4R)-4-hydroxy-2-(((S)-1-(4-(4-methylthiazol-5-yl)phenyl)ethyl)carbamoyl)pyrrolidin-1-yl)-3-methyl-1-oxobutan-2-yl)isoxazol-3-yl)oxy)ethyl)-3-(2-hydroxyphenyl)-7H-pyrrolo[2,3-c]pyridazine-6-carboxamide] | < 50 | A (“A” indicates maximum degradation ≥ 75%) | > 100 |  |
| Cc1ncsc1-c1ccc([C@H](C)NC(=O)[C@@H]2C[C@@H](O)CN2C(=O)[C@@H](c2cc(OCCNC(=O)C(=O)N3CC(c4cc5cc(-c6ccccc6O)nnc5[nH]4)C3)no2)C(C)C)cc1 (racemic) [Compound 240, (2S,4R)-4-hydroxy-1-((R)-2-(3-(2-(2-(3-(3-(2-hydroxyphenyl)-7H-pyrrolo[2,3-c]pyridazin-6-yl)azetidin-1-yl)-2-oxoacetamido)ethoxy)isoxazol-5-yl)-3-methylbutanoyl)-N-((S)-1-(4-(4-methylthiazol-5-yl)phenyl)ethyl)pyrrolidine-2-carboxamide] | > 50 | A (“A” indicates maximum degradation ≥ 75%) | > 100 | > 1000 |
| Cc1ncsc1-c1ccc([C@H](C)NC(=O)[C@@H]2C[C@@H](O)CN2C(=O)[C@@H](c2cc(OCCN(C)C(=O)c3cc4cc(-c5ccccc5O)nnc4[nH]3)no2)C(C)C)cc1 (racemic) [Compound 242, N-(2-((5-((R)-1-((2S,4R)-4-hydroxy-2-(((S)-1-(4-(4-methylthiazol-5-yl)phenyl)ethyl)carbamoyl)pyrrolidin-1-yl)-3-methyl-1-oxobutan-2-yl)isoxazol-3-yl)oxy)ethyl)-3-(2-hydroxyphenyl)-N-methyl-7H-pyrrolo[2,3-c]pyridazine-6-carboxamide] | < 50 | B (“B” indicates maximum degradation ≥ 50%) | > 100 |  |
| Cc1ncsc1-c1ccc([C@H](C)NC(=O)[C@@H]2C[C@@H](O)CN2C(=O)[C@@H](c2cc(OCCN3CC(CCCc4cc5cc(-c6ccccc6O)nnc5[nH]4)C3)no2)C(C)C)cc1 (racemic) [Compound 243, (2S,4R)-4-hydroxy-1-[(2R)-2-{3-[2-(3-{3-[3-(2-hydroxyphenyl)-7H-pyrrolo[2,3-c]pyridazin-6-yl]propyl}azetidin-1-yl)ethoxy]-1,2-oxazol-5-yl}-3-methylbutanoyl]-N-[(1S)-1-[4-(4-methyl-1,3-thiazol-5-yl)phenyl]ethyl]pyrrolidine-2-carboxamide] | > 50 | A (“A” indicates maximum degradation ≥ 75%) | > 100 | > 1000 |
| Cc1ncsc1-c1ccc([C@H](C)NC(=O)[C@@H]2C[C@@H](O)CN2C(=O)[C@@H](c2cc(OCCN3CC(CCc4cc5cc(-c6ccccc6O)nnc5[nH]4)C3)no2)C(C)C)cc1 (racemic) [Compound 244, (2S,4R)-4-hydroxy-1-((R)-2-(3-(2-(3-(2-(3-(2-hydroxyphenyl)-7H-pyrrolo[2,3-c]pyridazin-6-yl)ethyl)azetidin-1-yl)ethoxy)isoxazol-5-yl)-3-methylbutanoyl)-N-((S)-1-(4-(4-methylthiazol-5-yl)phenyl)ethyl)pyrrolidine-2-carboxamide] | > 50 | A (“A” indicates maximum degradation ≥ 75%) | > 100 |  |
| Cc1ncsc1-c1ccc([C@H](C)NC(=O)[C@@H]2C[C@@H](O)CN2C(=O)[C@@H](c2cc(OCCN3[C@@H]4CC[C@H]3CN(c3cc5cc(-c6ccccc6O)nnc5[nH]3)C4)no2)C(C)C)cc1 (racemic) [Compound 245, (2S,4R)-4-hydroxy-1-((2R)-2-(3-(2-(3-(3-(2-hydroxyphenyl)-7H-pyrrolo[2,3-c]pyridazin-6-yl)-3,8-diazabicyclo[3.2.1]octan-8-yl)ethoxy)isoxazol-5-yl)-3-methylbutanoyl)-N-((S)-1-(4-(4-methylthiazol-5-yl)phenyl)ethyl)pyrrolidine-2-carboxamide] | > 75 | A (“A” indicates maximum degradation ≥ 75%) | > 10 | > 100 |
| Cc1ncsc1-c1ccc([C@H](C)NC(=O)[C@@H]2C[C@@H](O)CN2C(=O)[C@@H](c2cc(OCCN(C)CC34CC(c5cc6cc(-c7ccccc7O)nnc6[nH]5)(C3)C4)no2)C(C)C)cc1 (racemic) [Compound 246, (2S,4R)-4-hydroxy-1-((R)-2-(3-(2-(((3-(3-(2-hydroxyphenyl)-7H-pyrrolo[2,3-c]pyridazin-6-yl)bicyclo[1.1.1]pentan-1-yl)methyl)(methyl)amino)ethoxy)isoxazol-5-yl)-3-methylbutanoyl)-N-((S)-1-(4-(4-methylthiazol-5-yl)phenyl)ethyl)pyrrolidine-2-carboxamide] | > 75 | A (“A” indicates maximum degradation ≥ 75%) | > 10 | > 100 |
| Cc1ncsc1-c1ccc([C@H](C)NC(=O)[C@@H]2C[C@@H](O)CN2C(=O)[C@@H](c2cc(N3CCC(CN4CC(c5cc6cc(-c7ccccc7O)nnc6[nH]5)C4)CC3)no2)C(C)C)cc1 (racemic) [Compound 247, (2S,4R)-4-hydroxy-1-((R)-2-(3-(4-((3-(3-(2-hydroxyphenyl)-7H-pyrrolo[2,3-c]pyridazin-6-yl)azetidin-1-yl)methyl)piperidin-1-yl)isoxazol-5-yl)-3-methylbutanoyl)-N-((S)-1-(4-(4-methylthiazol-5-yl)phenyl)ethyl)pyrrolidine-2-carboxamide] | > 50 | A (“A” indicates maximum degradation ≥ 75%) | > 10 | > 1000 |
| Cc1ncsc1-c1ccc([C@H](C)NC(=O)[C@@H]2C[C@@H](O)CN2C(=O)[C@@H](c2cc(N3CCC(N4CC(c5cc6cc(-c7ccccc7O)nnc6[nH]5)C4)CC3)no2)C(C)C)cc1 (racemic) [Compound 248, (2S,4R)-4-hydroxy-1-((R)-2-(3-(4-(3-(3-(2-hydroxyphenyl)-7H-pyrrolo[2,3-c]pyridazin-6-yl)azetidin-1-yl)piperidin-1-yl)isoxazol-5-yl)-3-methylbutanoyl)-N-((S)-1-(4-(4-methylthiazol-5-yl)phenyl)ethyl)pyrrolidine-2-carboxamide] | > 50 | A (“A” indicates maximum degradation ≥ 75%) | > 10 | > 100 |
| Cc1ncsc1-c1ccc([C@H](C)NC(=O)[C@@H]2C[C@@H](O)CN2C(=O)[C@@H](c2cc(OCCNC(=O)CN3CC(c4cc5cc(-c6ccccc6O)nnc5[nH]4)C3)no2)C(C)C)cc1 (racemic) [Compound 249, (2S,4R)-4-hydroxy-1-((R)-2-(3-(2-(2-(3-(3-(2-hydroxyphenyl)-7H-pyrrolo[2,3-c]pyridazin-6-yl)azetidin-1-yl)acetamido)ethoxy)isoxazol-5-yl)-3-methylbutanoyl)-N-((S)-1-(4-(4-methylthiazol-5-yl)phenyl)ethyl)pyrrolidine-2-carboxamide] | < 50 | A (“A” indicates maximum degradation ≥ 75%) | > 100 |  |
